system: L929 cells; experiment: ISO 10993-5 agar overlay cytotoxicity (neutral red); conditions: 24 hrs
Procedure: ISO 10993, agar overlay tests for cytotoxicity: in vitro method is also used, employing L929 cells (mouse fibroblasts ECACC 85011425). In brief; a confluent monolayer of cells is incubated, this is then covered with a layer fresh medium (EMEM, 2 mM L-Glutamine, 5% FBS, 2% Penicillin-Streptomycin) containing 1.5 g/l of soft agar and allowed to solidify. One tenth of the surface is covered with test materials (previously described) and incubated for 24 hrs. Post incubation the test material is carefully removed and a vital stain (neutral red) in fresh media added. After incubation this is removed, the cells washed and then the dye extracted from the cells and quantified spectrophotometrically for cell viability.
Percent toxicity was calculated according to the formula: % Toxicity=1−(OD average of test material wells/average OD of corresponding control wells (sodium azide added))×100. Included in the assay are a 50% concentration of A^3IS, a range of concentrations of commercial silver containing gel and commercial zinc containing gel product, compared to sodium azide (positive control). […] For the agar overlay toxicity assay the amount of test materials used was similar to that used for the initial direct contact assays of 100 mg per well however the contact time was extended to 24 hrs.

| SMILES | % Toxicity |
| --- | --- |
| [N-]=[N+]=[N-] [sodium azide] | 100% |

system: Candida albicans; experiment: Well/disc diffusion inhibition assay of combinations; format: cell-based; conditions: 50 μl A^3IS + 50 μg agent versus 100 μl A^3IS alone; FIG. 19
Procedure: Various combinations of A^3IS (from Example 3) and antibiotics/antifungal agents were tested against a placebo and A^3IS alone using a well/disc diffusion method. […] Well/Disc Diffusion Methods for Measurement of Microbial Inhibition: Agar plates were inoculated by swabbing overnight culture onto the plate surface. Plates were allowed to stand at room temperature for 15 minutes before use. Wells 8.2 mm diameter were bored into the surface of the agar. 100 μl of samples (a) to (c) was placed into each well. The samples diffuse into the agar around the well and are assayed for an ability to produce a zone of inhibition. Plates are incubated for 24, 48 or 72 hrs and zones of inhibition are measured. The diameter of zones, including the diameter of the well (8.2 mm) was recorded.

| SMILES | effect of combination with hydrogen peroxide source (zone of inhibition) |
| --- | --- |
| Clc1ccccc1C(c1ccccc1)(c1ccccc1)n1ccnc1 [Clotrimazole] | effects going beyond a combination/additive effects with hydrogen peroxide |
| Cc1cc(C2CCCCC2)n(O)c(=O)c1.NCCO [Cyclopiroxalomine] | effects going beyond a combination/additive effects with hydrogen peroxide |
| CN(C/C=C/C#CC(C)(C)C)Cc1cccc2ccccc12 [Terbidifine] | effects going beyond a combination/additive effects with hydrogen peroxide |
| CC(=O)N1CCN(c2ccc(OCC3COC(Cn4ccnc4)(c4ccc(Cl)cc4Cl)O3)cc2)CC1 (centres unmarked) [Ketoconazole] | effects going beyond a combination/additive effects with hydrogen peroxide |

system: clinical isolates of Mastitis causing Staphylococcus aureus; experiment: Inhibition assay (3 day repeats) on mastitis clinical isolates; format: cell-based; conditions: FIG. 11b
Procedure: • Escherichia coli (NCIMB 8545), Staphylococcus aureus (NCIMB 9518) and Pseudomonas aeruginosa (NCIMB 8626) are grown on nutrient agar or in nutrient broth for 24 hrs at 37° C. • Candida albicans (NCIMB 3179) and Saccharomyces cerevisiae are grown on sabaroud dextrose agar or in sabaroud dextrose broth for 24 hrs at 37° C. • Propionibacterium acnes (P. acnes ATCC/NTC 11827) is grown anaerobically on blood agar or in nutrient broth for 72 hrs at 37° C. • 22 isolates of Staphylococcus aureus from clinical mastitis obtained from Sligo regional Veterinary Laboratories are grown on nutrient agar or in nutrient broth for 24 hrs at 37° C. • For testing conducted in the Sligo Regional General Hospital; five Beta haemolytic Streptococci Group A clinical isolates are grown on blood agar or in nutrient broth for 24 hrs at 37° C. • Campylobacter coli (NCTC 11366) is grown on brain heart infusion agar or in brain heart infusion broth for 72 hrs at 37° C. • Campylobacter jejuni (NCTC 11322) and three clinical isolates are grown on brain heart infusion agar or in brain heart infusion broth for 72 hrs at 37° C. • MRSA (ATCC 43300) and seven clinical isolates are grown on nutrient agar or in brain heart infusion broth for 72 hrs at 37° C. • Laboratory mould isolates are grown on sabaroud dextrose agar or in sabaroud dextrose broth for 48 hrs at 25° C. • Botrytis cinerea is grown on sabaroud dextrose agar or in sabaroud dextrose broth for 48 hrs at 25° C.
Agar plates are inoculated by swabbing overnight culture onto the plate surface. Plates are allowed to stand at room temperature for 15 minutes before use. Wells 8.2 mm diameter are bored into the surface of the agar. One hundred and eighty μl of sample is placed into each well. The samples diffuse into the agar around the well and are assayed for an ability to produce a zone of inhibition. Plates are incubated for 24, 48 or 72 hrs and zones of inhibition are measured using an Autodata automatic zone reader. The diameter of zones, including the diameter of the well (8.2 mm), is recorded. […]

| SMILES | sensitivity of clinical isolate number 15 |
| --- | --- |
| O=C(N[C@H](CO)[C@H](O)c1ccc([N+](=O)[O-])cc1)C(Cl)Cl [Chloramphenicol] | only mild sensitivity |
| [H]/N=C(/N)N[C@H]1[C@H](O)[C@@H](O)[C@H](O[C@@H]2O[C@@H](C)[C@](O)(C=O)[C@H]2O[C@@H]2O[C@@H](CO)[C@H](O)[C@@H](O)[C@@H]2NC)[C@@H](N/C(N)=N\[H])[C@@H]1O [Streptomycin] | resistant |
| CN[C@H](CC(C)C)C(=O)N[C@H]1C(=O)N[C@@H](CC(N)=O)C(=O)N[C@H]2C(=O)N[C@H]3C(=O)N[C@H](C(=O)N[C@H](C(=O)O)c4cc(O)cc(O)c4-c4cc3ccc4O)[C@H](O)c3ccc(c(Cl)c3)Oc3cc2cc(c3O[C@@H]2O[C@H](CO)[C@@H](O)[C@H](O)[C@H]2O[C@H]2C[C@](C)(N)[C@H](O)[C@H](C)O2)Oc2ccc(cc2Cl)[C@H]1O [Vancomycin] | resistant |

system: S. aureus NCIMB 9587; experiment: Checkerboard synergy test; format: cell-based, Staphylococcus aureus; conditions: MIC as two-fold dilution fraction of each agent's final dilution (A^3IS 3%; antibiotics 1:100 to 1:3,200,000); overnight 35° C.
Procedure: Stock solutions were prepared according to published standards (CLSI (Clinical and Laboratory Standards Institute): Performance Standards for Antimicrobial Susceptibility testing. Fifteenth Informational Supplement. CLSI document M100-S15. Pennsylvania USA 2005, 19087-1898)
Synergy tests were performed in 96-well microtiter plates containing the A^3IS (from Example 3)/antibiotic combinations in two fold dilutions dispensed in a checkerboard fashion on the day of the assay. Each well contained 0.1 mL of A^3IS/antimicrobial combinations. A suspension of S. aureus test culture was prepared from an overnight broth culture to yield a final inoculum of approximately 3×10^5 to 5×10^5 CFU/mL. Twenty microliters of this suspension was added to all but the sterility control wells. MICs were read after overnight incubation at 35° C. Growth and sterility controls were included in each plate. Each isolate was tested twice. Growth was determined by visually examining each well for evidence of turbidity.
For the first clear well in each row of the microtiter plate containing both antimicrobial agents, the fractional inhibitory concentration (FIC) was calculated as follows: FIC of drug A (FICA)=MIC of drug A in combination/MIC of drug A alone, and the FIC of drug B (FICB)=MIC of drug B in combination/MIC of drug B alone.

| MICs for A^3IS & antibiotics on S. aureus NCIMB 9587 | SMILES |
| --- | --- |
| ½ | CO/N=C(\C(=O)N[C@@H]1C(=O)N2C(C(=O)O)=C(COC(N)=O)CS[C@H]12)c1ccco1 [Zinacef, Cefuroxime] |
| ½ | CC[C@H]1OC(=O)[C@H](C)[C@@H](O[C@H]2C[C@@](C)(OC)[C@@H](O)[C@H](C)O2)[C@H](C)[C@@H](O[C@@H]2O[C@H](C)C[C@H](N(C)C)[C@H]2O)[C@](C)(O)C[C@@H](C)C(=O)[C@H](C)[C@@H](O)[C@]1(C)O [Erythrocin] |
| ¼ | CC1=C(C(=O)O)N2C(=O)[C@@H](NC(=O)[C@H](N)C3=CCC=CC3)[C@H]2SC1 [Velocef, Cefradine] |
| ½ | Cc1onc(-c2c(F)cccc2Cl)c1C(=O)N[C@@H]1C(=O)N2[C@@H]1SC(C)(C)[C@@H]2C(=O)O [Flucloxacillin] |
| ½ | CC[C@H]1OC(=O)[C@H](C)[C@@H](O[C@H]2C[C@@](C)(OC)[C@@H](O)[C@H](C)O2)[C@H](C)[C@@H](O[C@@H]2O[C@H](C)C[C@H](N(C)C)[C@H]2O)[C@](C)(OC)C[C@@H](C)C(=O)[C@H](C)[C@@H](O)[C@]1(C)O [KIacid] |
| ¼ | CC1(C)S[C@@H]2[C@H](NC(=O)[C@H](N)c3ccc(O)cc3)C(=O)N2[C@H]1C(=O)O [Amoxicillin] |
